For test [1], the system named is Botrytis. Put plainly: Combination with herbicides, Botrytis agar plate test. To be noted: herbicide applied singly. The test is classed as cell-based, Botrytis cinerea.
Test [2] deals with Staphylococcus aureus. To be noted: Matsueda et al.; cited from earlier work.
Test [3] concerns Bacillus subtilis. To be noted: Matsueda et al.; cited from earlier work.
Test [4] relates to Pseudomonas aeruginosa. Particulars: Matsueda et al.; cited from earlier work.
Test [5] deals with E. coli. Particulars: Matsueda et al.; cited from earlier work.
The subject of test [6] is Candida japonica. Particulars: Matsueda et al.; cited from earlier work.
Test [7] deals with certain microorganisms. Particulars: Matsueda et al. 1980; cited from earlier work.
Test [8] deals with Microsporum canis. Put plainly: Effect of the fungicide on dermatophytes (agar incorporation). The test is classed as cell-based. Particulars: 120 h, pH 7.1, 25°, 5 days, read-out: Minimum Inhibitory Concentration, MIC. Here is the method:
(§1) These were recent clinical isolates and were cultivated at 25° C. on agar containing the following ingredients in grams per liter:
(§2) Mycelia from the 3 fungi were disintegrated with sterile glass beads in sterile water and 1 drop applied to the center petri dishes containing the same agar as above but to which was added Phaeoramularia fungicide. The fungicide was added at a concentration of from 0.5 μg/ml to 5 μg/ml of the eluate described under "Extraction of the active principle." Griseofulvin was used in comparison. Controls were prepared with the same agar but devoid of fungicide. Five (5) replicates were made for each test.

For test [9], the system named is T. mentagrophytes. The description is as above. The test is classed as cell-based. Particulars: Trichophyton mentagrophytes, 120 h, pH 7.1, 25°, 5 days, read-out: Minimum Inhibitory Concentration, MIC. Here is the method:
as §1, §2

For test [10], the system named is Trichophyton rubrum. The test is described as above. The test is classed as cell-based. Particulars: 120 h, pH 7.1, 25°, 5 days, read-out: Minimum Inhibitory Concentration, MIC. Here is the method: as §1, §2

≈ marks a conversion by molar mass, not a printed value.

On to `CCNc1nc(Cl)nc(NC(C)C)n1` [Atrazine], for which, in test [1], the “effect of herbicide on Botrytis” value was “no effect”.
In the case of `COc1nc(C)nc(NC(=O)NS(=O)(=O)c2ccccc2Cl)n1` [Chlorsulfuron], the “effect of herbicide on Botrytis” value in test [1] is recorded as “no effect”.
Take `COc1c(CC(C)O)c2c3c(CC(C)O)c(OC)c(=O)c4c(O)cc5c(c6c(cc(O)c(c1=O)c62)OCO5)c43` (stereo not drawn) [cercosporin]: the inhibition of growth entry in [2], in [3], in test [4], in [5] and in test [6] was “inhibit the growth” throughout. In test [7], the “inhibitory effect on certain microorganisms” value is on record as “inhibitory effect”.
For `CCNc1nc(Cl)nc(NCC)n1` [Simazine], in test [1], the “effect of herbicide on Botrytis” value is “no effect”.
In the case of `COC1=CC(=O)C[C@@H](C)[C@]12Oc1c(Cl)c(OC)cc(OC)c1C2=O` [griseofulvin], the MIC in test [8] came to 3 µg/mL (≈ 8.5 µM); in test [9] it was 10 µg/mL (≈ 28.3 µM); in test [10], 1.5 µg/mL (≈ 4.25 µM).

Values taken from patent publication US5288624A, “Cercosporal fungicide compositions and methods of use” (priority 1987, dated 1994).
